system: tobacco budworm (Heliothis virescens); details: in vivo
Experimental: See Index Table A for compound descriptions. The following abbreviations are used in the Index Table that follows: n is normal, i is iso, Pr […], and Ph is phenyl. The abbreviation “Ex.” stands for “Example” and is followed by a number indicating in which example the compound is prepared.
Test units, each consisting of a H.I.S. (high impact styrene) tray with 16 cells were prepared. Wet filter paper and approximately 8 cm^2 of lima bean leaf were placed into twelve of the cells. A 0.5-cm layer of wheat germ diet was placed into the four remaining cells. Fifteen to twenty third-instar larvae of fall armyworm (Spodoptera frugiperda) were placed into a 230-mL (8-ounce) plastic cup. Solutions of each of the test compounds in 75:25 acetone-distilled water solvent were sprayed into the tray and cup. Spraying was accomplished by passing the tray and cup on a conveyer belt directly beneath a flat fan hydraulic nozzle which discharged the spray at a rate of 0.138 kilograms of active ingredient per hectare (about 0.13 pounds per acre) at 207 kPa (30 p.s.i.). The insects were transferred from the 230-mL cup to the H.I.S. tray (one insect per cell). The trays were covered and held at 27° C. and 50% relative humidity for 48 hours, after which time readings were taken on the twelve cells with lima bean leaves. The four remaining cells were read at 6-8 days for delayed toxicity.
The test procedure of TEST A was repeated for determining efficacy against third-instar larvae of the tobacco budworm (Heliothis virescens) except that three 230-mL (8-ounce) plastic cups with wheat germ diet were used in place of the H.I.S. tray, with each cup pre-infected with five third-instar larvae.

SMILES	mortality levels [%]
CCCC12Cc3cc(Cl)ccc3C1=NC(C(=O)Nc1ccc(Br)cc1)=NN2 (stereo not drawn) [Compound 2]	≥ 80
CCCC12Cc3cc(Cl)ccc3C1=NC(C(=O)Nc1ccc(C(F)(F)F)cc1)=NN2C (stereo not drawn) [Compound 5]	≥ 80
CCCC12Cc3cc(Cl)ccc3C1=NC(C(=O)Nc1ccc(OC(F)(F)F)cc1)=NN2C (stereo not drawn) [Compound 6]	≥ 80
CCCC12Cc3cc(C(F)(F)F)ccc3C1=NC(C(=O)Nc1ccc(C(F)(F)F)cc1)=NN2C (stereo not drawn) [Compound 7]	≥ 80
CCCC12Cc3cc(C(F)(F)F)ccc3C1=NC(C(=O)Nc1ccc(OC(F)(F)F)cc1)=NN2C (stereo not drawn) [Compound 8]	≥ 80
CN1N=C(C(=O)Nc2ccc(C(F)(F)F)cc2)N=C2c3ccc(C(F)(F)F)cc3CC21C (stereo not drawn) [Compound 9]	≥ 80
CN1N=C(C(=O)Nc2ccc(OC(F)(F)F)cc2)N=C2c3ccc(C(F)(F)F)cc3CC21C (stereo not drawn) [Compound 10]	≥ 80
CCCC12Cc3cc(C(F)(F)F)ccc3C1=NC(C(=O)Nc1ccc(C(F)(F)F)cc1)=NN2C(C)=O (stereo not drawn) [Compound 11]	≥ 80
CCCC12Cc3cc(C(F)(F)F)ccc3C1=NC(C(=O)Nc1ccc(OC(F)(F)F)cc1)=NN2C(C)=O (stereo not drawn) [Compound 12]	≥ 80
O=C(Nc1ccc(OC(F)(F)F)cc1)C1=NNC2(c3ccc(F)cc3)Cc3cc(F)ccc3C2=N1 (stereo not drawn) [Compound 13]	≥ 80
CC12Cc3cc(F)ccc3C1=NC(C(=O)Nc1ccc(OC(F)(F)F)cc1)=NN2 (stereo not drawn) [Compound 14]	≥ 80
CC(C)C12Cc3cc(Cl)ccc3C1=NC(C(=O)Nc1ccc(OC(F)(F)F)cc1)=NN2 (stereo not drawn) [Compound 15]	≥ 80
COC(=O)N1N=C(C(=O)Nc2ccc(OC(F)(F)F)cc2)N=C2c3ccc(F)cc3CC21c1ccc(F)cc1 (stereo not drawn) [Compound 16]	≥ 80
CN1N=C(C(=O)Nc2ccc(OC(F)(F)F)cc2)N=C2c3ccc(F)cc3CC21C (stereo not drawn) [Compound 17]	≥ 80
CN1N=C(C(=O)Nc2ccc(C(F)(F)F)cc2)N=C2c3ccc(F)cc3CC21C (stereo not drawn) [Compound 19]	≥ 80
CCCC12Cc3cc(Cl)ccc3C1=NC(C(=O)Nc1ccc(SC(F)(F)F)cc1)=NN2 (stereo not drawn) [Compound 20]	≥ 80
CCCC12Cc3cc(C(F)(F)F)ccc3C1=NC(C(=O)Nc1ccc(SC(F)(F)F)cc1)=NN2 (stereo not drawn) [Compound 21]	≥ 80
O=C(Nc1ccc(SC(F)(F)F)cc1)C1=NNC2(c3ccc(F)cc3)Cc3cc(F)ccc3C2=N1 (stereo not drawn) [Compound 22]	≥ 80

Reference: US20030139397A1, “Arthropodicidal carboxanilides” (priority 2002, published 2003)
